From patent publication US20190352276A1, “INHIBITORS OF BRUTON'S TYROSINE KINASE” (Joint Stock Company "Biocad", priority 2016, published 2019)
Read-outs that look alike come from different tables or passages of the source.

Key:
[1] = target: T1, recombinant Btk kinase enzyme (Homo sapiens, UniProt Q06187); assay: In vitro inhibition of Btk kinase activity (ADP-Glo); assay type: biochemical
T1 construct: purchased SignalChem B10-10H
Experimental: To assess Btk kinase activity described herein, SignalChem kinase system was used. Btk kinase activity was determined in the reaction between recombinant Btk kinase enzyme (SignalChem #B10-10H) and Poly (4:1 Glu, Tyr) peptide substrate in the presence of the inhibitor.
Staurosporine (Abcam Biochemicals, ab146588) was used as a reference inhibitor and 0.1% DMSO in the reaction buffer—as a negative control. The solution of 0.5 mg/mL peptide substrate and 50 &M ATP in the same buffer were added; the solution was incubated for 180 minutes at 37° C. To detect the amount of ATP taken up during the kinase reaction, the equivalent amount of ADP (from the ADP Glo Detection Kit (Promega, #V9101)) was used according to the protocol. The reaction mixture was equilibrated to room temperature. 25 µL of ADP-Glo Reagent were added into each well; the plate was incubated for 40 minutes. 50 μL of Kinase Detection Reagent were added; the plate was incubated for 30 minutes. The luminescence was measured with multimode plate reader (Tecan Infinite M200Pro, Switzerland). IC50 values were calculated using Magellan 7.2 software (Tecan, Switzerland) approximating experimental points by four-parameter logistic model with the optimization by Levenberg-Marquardt.

[2] = Stability in human blood plasma; details: 10 μM in pooled human blood plasma, incubated 4 hours at 37° C.
Experimental: To assess the blood plasma stability of the drug candidates, we used pooled human blood plasma taken from ten healthy donors. The initial solution (10 Mm in DMSO) was diluted with pooled blood plasma to 10 μM (test solution). The test solution had been incubated for 4 hours in a dry block heater at 37° C. We determined peak areas of the compounds corresponding to the start of the test (before incubating) and the end of the test (after incubating in a dry block heater at 37° C.) by HPLC using Agilent1200 chromatograph (Agilent, USA) with preliminary protein precipitation with acetonitrile. We used gradient elution (1 mL/min flow rate). We determined amount of substance in the sample in % after incubation.
(§3) We evaluated the stability of the compounds.

[3] = Permeability through the monolayer of Caco-2 cells; assay type: in vitro ADME; details: human; for Papp A→B at 2 h, 10 μM / Papp B→A at 2 h, 10 μM: 2 h at 37° C.; for efflux ratio at 2 h, 10 μM: read-out: efflux (Papp B-A/Papp A-B)
Excerpt: Assessment of permeability through the monolayer of Caco-2 cells allows to evaluate the ability of the candidate compounds to penetrate through biological membranes by active and passive transport.
Caco-2, the cells of the intestinal epithelium, had been cultured in transwell plate inserts with the filters (with pores of 0.4 μm, BD Falcon with High Density, #353495) for 21 days, and then the integrity of the monolayer were estimated with Lucifer Yellow dye (Sigma-Aldrich, USA) by standard protocol. When setting the A→B transfer, solutions of test substances were added in a buffer with pH 6.5 (Hanks solution, 10 mM HEPES, 15 mM glucose solution) with the concentration of 10 μM into the upper chamber; the lower chamber was filled with a buffer with pH 7.4 (Hanks solution, 10 mM HEPES, 15 mM glucose solution, 1% BSA). When setting B→A transfer, the upper chamber was filled with the buffer with pH 6.5, and solutions of the test substances were added in the buffer with pH 7.4 at the concentration of 10 μM in the lower chamber. Propranolol was used as a control substance (as it has high permeability).
We used gradient elution (1 mL/min flow rate). We determined the areas of peaks corresponding to the compounds. On the basis of peak areas in the calibration standards we determined the concentration of compound in the initial solution and in the samples from the wells of the upper and lower chambers.
Papp, permeability through the cell layer, was calculated using the following formula:
Papp=(C(t)*V)/(C(0)*t*Area), where
Papp is the effective constant of permeability, m/s V is the volume of solution (0.8 ml in A→B test, 0.2 ml in B→A test), ml Area is the surface area of the membrane (0.33 cm^2), cm^2 t is the time of incubation (7200 sec), sec C(0) is the concentration of the initial solution, μM C(t) is the concentration of the solution after 2 hours (the concentration in the sample from the well of the lower chamber in A→B test; the concentration in the sample from the well of the top chamber in B→A test), μM
The value was calculated with the following formula:
efflux=Papp B-A/Papp A-B, where
Papp A-B is the value of the permeability in the direct test (A→B); Papp B-A is the value of the permeability in the backward test in (B→A).

[4] = Chemical stability in artificial gastric fluid (SGF without enzymes); details: 10 μM in SGF without enzymes, pH=1.4, 37° C.
Experimental: The initial candidate solution (10 mM in DMSO) was diluted with the working solution of SGF to the concentration of 10 μm (test solution). The test solution was incubated in a dry block heater at 37° C. We determined peak areas of the compounds corresponding to the start of the test (before incubating) and the end of the test (after incubating in a dry block heater at 37° C.) by HPLC using Agilent1200 chromatograph (Agilent, USA). We used gradient elution (1 mL/min flow rate). We determined amount of substance in the sample in % after incubation.
as §3

[5] = system: DOHH2 (follicular lymphoma); assay: Antiproliferative activity, DOHH2 cells (Alamar Blue); assay type: cell-based; details: Homo sapiens, DOHH-2, Table 10, 72 h, average of several tests
Experimental: Antiproliferative activity of BTK inhibitors was measured in cell-based bioassay on B-cells cultures: Mino (mantle cell lymphoma, ATCC® CRL-3000™), Z-138 (mantle cell lymphoma, ATCC® CRL-3001™) and DOHH2 (follicular lymphoma, Creative Bioarray CSC-C0219) using cell viability reagent Alamar Blue (Invitrogen, #DAL 1100). Cells were cultured in 10% FB S-supplemented (HyClone, #SH3008803/Gibco, #16140-071) RPMI-1640 (PanEco, #S330p) for at least 1 passage after thawing, washed with PBS and passaged in 96-well culture plates (Corning, #3599) with growth medium with 10% FBS (HyClone, #SH3008803/Gibco, #16140-071) and antibiotic (50 μg/ml of gentamicin (Biolot, #1.3.16))≈3*10^4 cells in 50 μl of medium per well.
The compounds were dissolved in DMSO and diluted with the assay medium to final concentrations ranging from […]. 150 μl of each diluted compound were then added to each well (final concentration of DMSO was less than 1%) and incubated at 37° C. in an incubator under 5% of CO2 for 72 h. After incubation, 20 μl of Alamar Blue reagent (Invitrogen, #DAL1100) were added to each well. The plates were shaked on an orbital shaker (Biosan, Latvia) and then incubated for 14-16 hours at 37° C. in the incubator.
The number of living cells were estimated, measuring the fluorescence signal at the excitation wavelength (REx) of 540 nm and the emission wavelength (λEm) of 590 nm on a microplate reader (Tecan Infinite M200Pro, Switzerland).
For each compound, IC50 was calculated using Magellan 7.2 software (Tecan, Switzerland) approximating experimental points by four-parameter logistic model with the optimization by Levenberg-Marquardt.

[6] = system: Z-138 (mantle cell lymphoma); assay: Antiproliferative activity, Z-138 cells (Alamar Blue); assay type: cell-based; details: Homo sapiens
Method in brief: (§1)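 Viability is measured with Alamar Blue after the lymphoma cells have spent 72 h with test compounds at 37 °C under 5% CO2. Roughly 3*10^4 cells are seeded per well in serum-supplemented RPMI-1640. Fluorescence is read at 540/590 nm, and IC50 is derived by four-parameter logistic regression.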

[7] = General cytotoxicity on HepG2 cells (CC50; therapeutic index CC50 HepG2/IC50 Mino); assay type: cell-based; details: human, HepG2 cells (hepatocellular carcinoma), 72 hours, Alamar Blue
Method in brief: (§2)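 Alamar Blue viability after 72 h exposure to compounds (final 200 μM–4 μM) gave CC50; HepG2 plated 2*10^4/well in DMEM 24 h beforehand. Therapeutic index expressed as ratio of HepG2 CC50 to Mino antiproliferative IC50.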

[8] = system: HepG2 cells (hepatocellular carcinoma); assay: as above; assay type: cell-based; details: therapeutic index
Method in brief: as §2

[9] = system: Mino (mantle cell lymphoma); assay: Antiproliferative activity, Mino cells (Alamar Blue); assay type: cell-based; details: Homo sapiens
Method in brief: as §1

[10] = Table 8, ADP-Glo, read-out: IC50 kinase BTK
[11] = Table 10, 72 h, average of several tests
[12] = Table 10, average of several tests

T1 sequence (Q06187 whole entry): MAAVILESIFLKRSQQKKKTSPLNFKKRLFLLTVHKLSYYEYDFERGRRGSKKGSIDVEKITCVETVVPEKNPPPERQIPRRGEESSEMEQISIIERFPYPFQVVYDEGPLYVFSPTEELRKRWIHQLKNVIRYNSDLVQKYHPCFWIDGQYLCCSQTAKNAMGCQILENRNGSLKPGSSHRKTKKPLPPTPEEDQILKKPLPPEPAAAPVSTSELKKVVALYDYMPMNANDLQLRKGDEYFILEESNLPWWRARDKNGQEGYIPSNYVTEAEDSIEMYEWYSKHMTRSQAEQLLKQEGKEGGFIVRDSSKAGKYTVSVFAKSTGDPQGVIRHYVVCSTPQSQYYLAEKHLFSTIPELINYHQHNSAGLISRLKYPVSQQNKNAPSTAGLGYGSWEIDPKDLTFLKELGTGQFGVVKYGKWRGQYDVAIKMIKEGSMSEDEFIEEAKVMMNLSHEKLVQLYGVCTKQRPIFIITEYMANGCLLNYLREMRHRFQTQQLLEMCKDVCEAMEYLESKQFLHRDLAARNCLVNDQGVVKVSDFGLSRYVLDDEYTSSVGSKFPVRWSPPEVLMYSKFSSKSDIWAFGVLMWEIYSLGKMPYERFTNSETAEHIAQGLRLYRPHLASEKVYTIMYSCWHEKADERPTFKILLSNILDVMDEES

| Compound | IC50 [1, 10] | Amount of substance in the sample in % (chemical stability) [4] | IC50 [5] | IC50 [6, 11] | CC50 at 72 h [7, 12] | CC50 (HepG2)/IC50 (Mino) ([8]; Table 10) | IC50 [9, 11] | further results |
| --- | --- | --- | --- | --- | --- | --- | --- | --- |
| C=CC(=O)N1CCC[C@@H](n2nc(-c3ccc(C(=O)Nc4ccccn4)cc3)c3cncc(C#N)c32)C1 [BCD-BTK-228, (R)-4-(1-(1-acryloylpiperidin-3-yl)-7-cyano-1H-pyrazolo[4,3-c]pyridin-3-yl)-N-(pyridin-2-yl)benzamide] | 38.9 nM | 99.9% |  |  |  |  |  | Amount of substance in the sample, % (stability in human blood plasma) [2]: 85.2%; Papp A→B at 2 h, 10 μM [3]: 8 ×10⁻⁶ cm/s; Papp B→A at 2 h, 10 μM [3]: 1.4 ×10⁻⁶ cm/s; efflux ratio at 2 h, 10 μM [3]: 0.17 |
| C=CC(=O)N1CCC[C@@H](n2nc(-c3ccc(C(=O)Nc4cc(C(F)(F)CCC)ccn4)cc3)c3cncc(F)c32)C1 [BCD-BTK-247, (R)-4-(1-(1-acryloylpiperidin-3-yl)-7-fluoro-1H-pyrazolo[4,3-c]pyridin-3-yl)-N-(4-(1,1-difluorobutyl)pyridin-2-yl)benzamide] | 14.7 nM |  | > 100000 nM | > 50000 nM | > 100000 nM | >17.21 | 5810 nM |  |
| C=CC(=O)N1CCC[C@@H](n2nc(-c3ccc(C(=O)Nc4cc(C(F)(F)CC)ccn4)cc3)c3cncc(Cl)c32)C1 [BCD-BTK-215, (R)-4-(1-(1-acryloylpiperidin-3-yl)-7-chloro-1H-pyrazolo[4,3-c]pyridin-3-yl)-N-(4-(1,1-difluoropropyl)pyridin-2-yl)benzamide] | 35.8 nM |  | > 100000 nM | 8000 nM | > 100000 nM | >34.11 | 2930 nM |  |
| C=CC(=O)N1CCC[C@H](Cn2nc(-c3ccc(C(=O)Nc4ccccn4)cc3)c3cncc(Cl)c32)C1 [BCD-BTK-290, (S)-4-(1-((1-acryloylpiperidin-3-yl)methyl)-7-chloro-1H-pyrazolo[4,3-c]pyridin-3-yl)-N-(pyridin-2-yl)benzamide] | 19.6 nM | 100% |  |  |  |  |  | Amount of substance in the sample, % (stability in human blood plasma) [2]: 100.0% |
| C=CC(=O)N1CCC[C@@H](n2nc(-c3ccc(C(=O)Nc4cc(C(F)(F)CCC)ccn4)cc3)c3c(N)ncc(Cl)c32)C1 [BCD-BTK-254, (R)-4-(1-(1-acryloylpiperidin-3-yl)-4-amino-7-chloro-1H-pyrazolo[4,3-c]pyridin-3-yl)-N-(4-(1,1-difluorobutyl)pyridin-2-yl)benzamide] | 11.2 nM |  |  | 6650 nM | 12300 nM | 4.18 | 2950 nM |  |
| C=CC(=O)N1CCC[C@@H](n2nc(-c3ccc(C(=O)Nc4cccc(F)n4)cc3)c3c(N)ncc(Cl)c32)C1 [BCD-BTK-250, (R)-4-(1-(1-acryloylpiperidin-3-yl)-4-amino-7-chloro-1H-pyrazolo[4,3-c]pyridin-3-yl)-N-(6-fluoropyridin-2-yl)benzamide] | 15.3 nM |  |  | 3260 nM | 12200 nM | 5.13 | 2380 nM |  |
| C=CC(=O)N1CCC[C@@H](n2nc(-c3ccc(Oc4ccncc4)cc3)c3cncc(C#N)c32)C1 [BCD-BTK-123, (R)-1-(1-acryloylpiperidin-3-yl)-3-(4(pyridin-4-yloxy)phenyl)-1H-pyrazolo[4,3-c]pyridin-7-carbonitrile] |  |  |  |  |  |  |  | IC50 ([1]; Table 11, BTK kinase, read-out: IC50 kinase): 1510 nM; IC50 ([6]; Table 11, 72 h): 28000 nM; CC50 at 72 h ([7]; Table 11): 50400 nM; CC50 (HepG2)/IC50 (Mino) ([8]; Table 11): 3.81; Papp A→B at 2 h, 10 μM [3]: 14.8 ×10⁻⁶ cm/s; Papp B→A at 2 h, 10 μM [3]: 7.4 ×10⁻⁶ cm/s; efflux ratio at 2 h, 10 μM [3]: 0.5; IC50 ([9]; Table 11, 72 h): 13200 nM |
| C=CC(=O)N1CCC[C@@H](n2nc(-c3ccc(C(=O)Nc4ccc(F)cn4)cc3)c3cncc(F)c32)C1 [BCD-BTK-244, (R)-4-(1-(1-acryloylpiperidin-3-yl)-7-fluoro-1H-pyrazolo[4,3-c]pyridin-3-yl)-N-(5-fluoropyridin-2-yl)benzamide] | 55.7 nM | 100% |  |  |  |  |  |  |
| CC#CC(=O)N1CCC[C@@H](n2nc(-c3ccc(C(=O)Nc4ccccn4)cc3)c3c(N)ncc(Cl)c32)C1 [BCD-BTK-295, (R)-4-(4-amino-1-(1-(but-2-ynoyl)piperidin-3-yl)-7-chloro-1H-pyrazolo[4,3-c]pyridin-3-yl)-N-(pyridin-2-yl)benzamide] | 65.2 nM |  | 1940 nM | 1190 nM | 32500 nM | 16.23 | 2000 nM |  |
